Assay results published in the NIST ThermoML archive (doi:10.1021/je500079y).
Numbers after ± are expanded uncertainties.

Conditions: 101.33 kPa, Liquid, Vibrating tube method

CCOS(=O)(=O)[O-].CCn1cc[n+](C)c1 [1-ethyl-3-methylimidazolium ethyl sulfate]
Conditions	mass density [kg/m3]
278.15 K	1250.01 ± 0.13
283.15 K	1246.61 ± 0.13
288.15 K	1243.14 ± 0.13
293.15 K	1239.68 ± 0.13
298.15 K	1236.24 ± 0.13
303.15 K	1232.82 ± 0.13
308.15 K	1229.42 ± 0.13
313.15 K	1226.03 ± 0.13
318.15 K	1222.66 ± 0.12
323.15 K	1219.3 ± 0.1
328.15 K	1215.96 ± 0.12
333.15 K	1212.63 ± 0.12
338.15 K	1209.31 ± 0.12
343.15 K	1206.01 ± 0.12
